Source: patent US20240247298A1, “METHOD FOR DETECTING LIVE LACTIC ACID BACTERIA WITH CARBOHYDRATE METABOLISM ACTIVITY” (KABUSHIKI KAISHA YAKULT HONSHA, priority 2021, published 2024)

What was measured:
Format in all cases: cell-based, Lacticaseibacillus paracasei YIT 9029
LcS [1] = experiment: cF excretion activity by addition of various saccharides of LcS (cFDA/PI double staining, flow cytometry); conditions: LcS from New Yakult suspended in 1% saccharide solution; cFDA 50 μM, PI 30 μM
Method: (§1) A beverage or food containing LcS (New Yakult: manufactured by Yakult Honsha Co., Ltd.) stored at about 4° C. within 16 days after production was diluted 10-fold with DPBS, then washed by centrifugation three times with DPBS, and the cell pellet was collected. The cell pellet obtained above was suspended in a 1% (V/W) solution in which a saccharide shown in Table 1 was dissolved in purified water. Further, the suspension was diluted with DPBS so that the cell concentration in the suspension was about 10^6 cells/mL, and cFDA was added thereto at a final concentration of 50 μM, and the resultant was left to stand at 30° C. for 15 minutes. Subsequently, propidium iodide was added thereto at a final concentration of 30 μM, and the resultant was left to stand at room temperature for 15 minutes, and then subjected to FACSAriaTM fusion (manufactured by Becton Dickinson) to measure the cF fluorescence intensity. A case where 90% or more of the total bacterial cells were counted as cF^- was determined to have cF excretion activity. In Table 1, those determined to have cF excretion activity are indicated by +, and those determined to have no cF excretion activity are indicated by -. The assimilation of a saccharide was examined using AP[…] (manufactured by bioMérieux Japan Co., Ltd.), which is a kit for identifying bacteria. A saccharide that can be assimilated by LcS is indicated by +, and a saccharide that cannot be assimilated by LCS is indicated by -.

LcS [2] = experiment: Assimilation of a saccharide examined using API50cH; parameters: key: A saccharide that can be assimilated by LcS is indicated by +; a saccharide that cannot be assimilated by LCS is indicated by −; conditions: assimilation by LcS, API50cH kit
Method: as §1, with “The” for “A beverage or food containing LcS (New Yakult: manufactured by Yakult Honsha Co., Ltd.) stored at about 4° C. within 16 days after production was diluted 10-fold with DPBS, then washed by centrifugation three times with DPBS, and the cell pellet was collected. The”

LcS [3] = experiment: Time course of cF accumulation and cF excretion of LcS
Method: A cultured bacterial solution of LcS in MRS medium was washed by centrifugation with Dulbecco's PBS (DPBS: manufactured by Thermo Fisher Scientific, Inc.), thereby removing saccharides. CFDA was added to the DPBS suspension of LcS obtained above at a final concentration of 50 μM (t=0), and cF accumulation from 0 to 20 minutes thereafter was examined by Gallios. In addition, to the DPBS suspension of LcS obtained above, CFDA was added at a final concentration of 50 μM, and the resultant was left to stand at 30° C. for 30 minutes to allow cF to accumulate in the bacterial cells. Subsequently, glucose was added at a final concentration of 10 mM (t=0), and cF excretion in 15 minutes thereafter was examined. Further, to the DPBS suspension of LcS obtained above, CFDA was added at a final concentration of 50 μM, and the resultant was left to stand at 30° C. for 30 minutes to allow cF to accumulate in the bacterial cells. Subsequently, glucose was added at a final concentration of 0.001 mM, 0.01 mM, 0.1 mM, or 1 mM (t=0), and cF excretion in 15 minutes thereafter was examined.

| Compound | cF excretion activity (LcS [1]) | Assimilability (LcS [2]) | also measured |
| --- | --- | --- | --- |
| O=CC[C@@H](O)[C@@H](O)[C@H](O)CO [2-deoxy-D-galactose] | − (those determined to have no cF excretion activity are indicated by −) |  |  |
| O=CC[C@@H](O)[C@H](O)[C@H](O)CO [2-deoxy-D-glucose] | − (those determined to have no cF excretion activity are indicated by −) |  |  |
| O=C[C@H](O)[C@@H](O)[C@@H](O)[C@H](O)CO [D-galactose] | + (A case where 90% or more of the total bacterial cells were counted as cF^− was determined to have cF excretion activity) | + |  |
| O=C[C@H](O)[C@@H](O)[C@H](O)[C@H](O)CO [D-glucose] | + (A case where 90% or more of the total bacterial cells were counted as cF^− was determined to have cF excretion activity) | + | cF excretion (LcS [3]; glucose final concentration 0.001 mM): significant delay in excretion; cF excretion (LcS [3]; glucose final concentration 0.01 mM): slight delay in excretion; time after which cF began to be rapidly excreted (LcS [3]; glucose final concentration 10 mM, LcS with cF accumulated in advance): about 3 minutes |
| O=C[C@@H](O)[C@@H](O)[C@H](O)[C@H](O)CO [D-mannose] | + (A case where 90% or more of the total bacterial cells were counted as cF^− was determined to have cF excretion activity) | + |  |
| O=C[C@H](O)[C@@H](O)[C@@H](O)CO [L-arabinose] | − (those determined to have no cF excretion activity are indicated by −) | − |  |
| C[C@H](O)[C@H](O)[C@@H](O)[C@@H](O)C=O [L-rhamnose] | − (those determined to have no cF excretion activity are indicated by −) | − |  |
| O=C(CO)[C@@H](O)[C@H](O)[C@@H](O)CO [L-sorbose] | − (those determined to have no cF excretion activity are indicated by −) | + |  |
| OC[C@H]1O[C@@H](O[C@H]2[C@H](O)[C@@H](O)C(O)O[C@@H]2CO)[C@H](O)[C@@H](O)[C@H]1O (stereo partly shown) [Lactose] | − (those determined to have no cF excretion activity are indicated by −) | + |  |
| OC[C@H]1O[C@@](CO)(O[C@H]2O[C@H](CO)[C@@H](O)[C@H](O)[C@H]2O)[C@@H](O)[C@@H]1O [sucrose] | − (those determined to have no cF excretion activity are indicated by −) | + |  |
| carboxyfluorescein diacetate [cFDA] |  |  | time after which cF accumulation amount was almost saturated (LcS [3]; cFDA 50 μM, no sugar, DPBS suspension of LcS): 20 min |
